Assay type in all cases: in vivo
The subject of experiment [1] is Random Hooded rats. The experiment in a line: Rat Model of Joint Pain (intra-articular FCA, weight bearing). The following applies: oral; for ED50: FCA (i.art) weight bearing, read-out: ED50 obtained from Area Under the Curve (AUC) calculations; for reversal of FCA (i.art)-induced difference in weight bearing compared to vehicle response: twice daily for 5 days, normally 13-17 days post surgery. How it is done:
By measuring hypersensitivity post intra-articular injection of FCA into the knee, the effectiveness of a potential analgesic in reversing FCA-induced hypersensitivity can be assessed in a joint pain model of chronic inflammatory pain. Adult male Random Hooded rats (150-180 g) from Charles River, UK were briefly anaesthetised with isoflurane (3%). Rats were then injected with 150 μl of Freund's complete adjuvant (FCA) into the left knee joint (intra-articularly, i.art). The ability to bear weight on each hindlimb (weight bearing, g) was measured prior to and following surgery using a Dual Channel Weight Averager (Linton Instruments). When a stable difference in weight bearing was established between the injected and contralateral paws, rats were typically dosed orally (normally 13-17 days post surgery) with compound twice daily for 5 days with weight bearing measurements recorded daily.

Experiment [2] relates to Random Hooded rats. The experiment in a line: Rat Model of Neuropathic Pain (sciatic nerve ligatures, Von Frey mechanical allodynia). As to conditions: oral, twice daily for 8 days, 26-33 days post surgery. From the text: Rat Model of Neuropathic Pain
By placing loosely constrictive ligatures around the common sciatic nerve, a peripheral mononeuropathy can be produced, which thereby provides a rat model of neuropathic pain, Bennet et al., Pain, Vol. 33, pp 87-107 (1988). Adult male Random Hooded rats (180-200 g) from Charles River, UK were anaesthetised with isoflurane (3%). The sciatic nerve in the left leg was exposed at mid thigh level and 4 loose ligatures of Chromic 4.0 gut tied around the nerve as described by Bennet et al., Pain, Vol. 33, pp 87-107 (1988). The wound was closed and secured with staples. Sham rats underwent the same procedure but loose ligatures were not applied. The presence of mechanical (tactile) allodynia was assessed using manual application of Von Frey hair monofilaments. Monofilaments were applied in ascending order to the plantar region of the hind paw (range: 1.4 g-26 g). Each hair was applied for approx. 3-5 seconds until a paw withdrawal response was observed. After confirmation with reapplication of lower and/or higher hairs, the lowest hair to give a paw withdrawal was recorded as the threshold response (g). When stable allodynia was established rats were dosed orally 26-33 days post surgery with compound twice daily for 8 days with allodynia measurements recorded at least three times during the dosing period.

Experiment [3] concerns Random Hooded rats. Kind of experiment: Rat Model of Acute Inflammatory Pain (intraplantar FCA, weight bearing). As to conditions: oral; for reversal of FCA (i.pl)-induced difference in weight bearing compared to vehicle response: 24 hours after FCA injection; for ED50: FCA (i.pl) weight bearing, read-out: ED50 obtained from dose response curves. As to the method: Rat Model of Acute Inflammatory Pain
A useful animal model for acute inflammatory pain is the Freund's Complete Adjuvant (FCA)-induced inflammation model. A similar model using carrageenan rather than FCA is described by Clayton et al. in Br. J. Pharmacol. 1997; 120, 219P. Adult male Random Hooded rats (180-220 g) from Charles River, UK received an intraplantar (i.pl) injection of 100 μl of FCA into the plantar surface of the left hind paw. The ability to bear weight on each hindlimb (weight bearing g) was measured prior to and 24 hours after the FCA injection using a Dual Channel Weight Averager (Linton Instruments). After the post-FCA reading, rats were typically dosed orally with compound after which weight bearing measurements were recorded.

We go through 2 molecules from patent publication US7718693B2, “Receptor antagonists and their methods of use” (Glaxo Group Limited, priority 2006, dated 2010).

For `CN1C(=O)CC[C@H]1C(=O)NCc1ccc(Cl)cc1Cl` [Example E10, N-[(2,4-dichlorophenyl)methyl]-1-methyl-5-oxo-prolinamide], in the experiment on Random Hooded rats [1], the ED50 (as a rule, the midpoint of the dose-response relation) was less than 20 mg/kg and the “reversal of FCA (i.art)-induced difference in weight bearing compared to vehicle response” value is “significantly reversed”. In the experiment on Random Hooded rats [2], the “reversal of CCl-induced mechanical allodynia compared to vehicle response” value is “significantly reversed”. Also, in the experiment with Random Hooded rats [3], the “reversal of FCA (i.pl)-induced difference in weight bearing compared to vehicle response” value is on record as “significantly reversed” and the ED50 is less than 20 mg/kg.
Regarding `CN1C(=O)CC[C@H]1C(=O)NCc1cccc(C(F)(F)F)c1Cl` [Example E51, N-{[2-chloro-3-(trifluoromethyl)phenyl]methyl}-1-methyl-5-oxoprolinamide], in the experiment on Random Hooded rats [1], the ED50 was less than 20 mg/kg and the “reversal of FCA (i.art)-induced difference in weight bearing compared to vehicle response” value is on record as “significantly reversed”. Moreover, the “reversal of CCl-induced mechanical allodynia compared to vehicle response” value in the experiment on Random Hooded rats [2] is reported as “significantly reversed”. In addition, in the experiment on Random Hooded rats [3], the “reversal of FCA (i.pl)-induced difference in weight bearing compared to vehicle response” value is on record as “significantly reversed” and the ED50 is less than 20 mg/kg.
